# Data: patent US5789602A, “Physiologically active substances PF1092A, PF1092B and PF1092C, process for the production thereof, and contraceptives and anticancer drugs containing the same as active ingredients” (Meiji Seika Kaisha, Ltd., priority 1995, dated 1998)
# “Also recorded” adds a separate entry of the source.
# System: not listed separately
# Test: Solubility (physico-chemical properties)
# Format: physicochemical
# Settings: qualitative, in organic solvents and in water
row,Structure (SMILES),Solubility
1,CC(=O)OC1C(O)C=C2C=C3OC(=O)C(C)=C3CC2(C)C1C (stereo not drawn) [PF1092A],"soluble in chloroform, acetone, ethyl acetate, methanol and dimethyl sulfoxide, and insoluble in water and hexane"
2,CC(=O)OC1C=C2C=C3OC(=O)C(C)=C3CC2(C)C(C)C1O (stereo not drawn) [PF1092B],"soluble in chloroform, acetone, ethyl acetate, methanol and dimethyl sulfoxide, and insoluble in water and hexane"
3,CC1=C2CC3(C)C(=CC(O)C(O)C3C)C=C2OC1=O (stereo not drawn) [PF1092C],"soluble in chloroform, acetone, ethyl acetate, methanol and dimethyl sulf oxide, and insoluble in water and hexane; also recorded: soluble in chloroform, acetone, ethyl acetate, methanol and dimethyl sulfoxide, and insoluble in water and hexane"

# Biological target: T1, progesterone receptor (Sus scrofa, UniProt D0EWS6)
# T1 construct: from tissue; host or cells: hog uterus, cytosol (100,000×g supernatant)
# T1 sequence (D0EWS6 1-934): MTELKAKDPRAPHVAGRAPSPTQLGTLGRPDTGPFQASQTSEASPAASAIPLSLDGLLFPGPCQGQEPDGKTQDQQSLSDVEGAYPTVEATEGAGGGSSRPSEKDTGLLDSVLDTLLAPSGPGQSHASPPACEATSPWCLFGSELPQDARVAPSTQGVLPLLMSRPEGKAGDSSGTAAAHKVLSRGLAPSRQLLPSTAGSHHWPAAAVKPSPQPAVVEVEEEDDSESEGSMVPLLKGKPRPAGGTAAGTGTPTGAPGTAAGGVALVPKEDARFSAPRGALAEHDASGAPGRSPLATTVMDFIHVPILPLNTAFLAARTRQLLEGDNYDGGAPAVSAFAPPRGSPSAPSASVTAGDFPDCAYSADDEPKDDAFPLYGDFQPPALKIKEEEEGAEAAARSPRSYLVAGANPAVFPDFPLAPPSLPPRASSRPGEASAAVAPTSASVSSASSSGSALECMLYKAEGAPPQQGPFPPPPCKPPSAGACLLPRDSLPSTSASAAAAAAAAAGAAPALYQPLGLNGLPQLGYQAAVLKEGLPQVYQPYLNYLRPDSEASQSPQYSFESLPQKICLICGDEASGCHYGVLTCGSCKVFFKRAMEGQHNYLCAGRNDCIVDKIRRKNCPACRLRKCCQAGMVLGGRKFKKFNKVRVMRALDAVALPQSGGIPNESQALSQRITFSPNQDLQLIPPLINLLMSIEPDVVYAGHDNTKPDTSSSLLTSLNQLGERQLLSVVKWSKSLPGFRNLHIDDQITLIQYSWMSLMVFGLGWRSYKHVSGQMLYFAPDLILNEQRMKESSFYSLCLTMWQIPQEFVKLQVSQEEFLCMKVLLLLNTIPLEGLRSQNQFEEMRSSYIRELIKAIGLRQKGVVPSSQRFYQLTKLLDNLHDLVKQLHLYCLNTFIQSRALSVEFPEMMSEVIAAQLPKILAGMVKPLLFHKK
# Test: progesterone receptor binding activity (3H-progesterone, hog uterus cytosol)
# Design: species or system hogs
# Settings: 1 h, 30 μM test substance, 4° C., 60 minutes, read-out: inhibition of the binding of 3H-progesterone to the progesterone receptor (inhibition ratio)
# Procedure: The progesterone receptor binding activity of substance PF1092A, substance PF1092B and substance PF1092C of the present invention was measured in the following manner in accordance with the method of H. Kondo et al. (J. Antibiotics, vol. 43, pp. 1533-1542, 1990). That is, uteri taken from hogs in 5 mM phosphate buffer were disrupted using Polytron homogenizer, and the resulting solution was subjected to centrifugation (100,000×g, 30 minutes) to separate the supernatant fluid which was used as the cytosol containing progesterone receptor.
# In the assay of progesterone receptor binding activity, 40 μl of a solution of ^3 H-progesterone as a ligand of the receptor (3.84 TBq/mmol, 18.5 kBq/ml), 50 μl of the just obtained cytosol (2-3 mg protein/ml), 30 μM of substance PF1092A, substance PF1092B and substance PF1092C and 30 μM of medroxyprogesterone acetate (MPA) were put into a test tube and incubated at 4° C. for 60 minutes to effect the reaction and then mixed with 100 μl of 0.5% activated carbon solution. After 10 minutes of standing, this was subjected to centrifugation (2,000×g, 10 minutes), and radioactivity of the thus obtained supernatant fluid was measured using a liquid scintillation counter. Inhibition ratio was calculated based on the following formula in which radioactivity with no addition of the test drug was defined as the amount of total binding to the cytosol and radioactivity with the addition of MPA was defined as the amount of non-specific binding. [formula]
row,inhibition at 30 µM,Structure (SMILES)
1,≥ 90%,CC(=O)OC1C(O)C=C2C=C3OC(=O)C(C)=C3CC2(C)C1C (stereo not drawn) [PF1092A]
2,≥ 90%,CC(=O)OC1C=C2C=C3OC(=O)C(C)=C3CC2(C)C(C)C1O (stereo not drawn) [PF1092B]
3,~70%,CC1=C2CC3(C)C(=CC(O)C(O)C3C)C=C2OC1=O (stereo not drawn) [PF1092C]
